# Assay results taken from US8680012B2, “4-phenyl-pyrane-3,5-diones,4-phenyl-thiopyrane-3,6-diones and cyclohexanetriones as novel herbicides” (Syngenta Crop Protection LLC, priority 2006, dated 2014).
# Tests used:
# Format in all cases: in vivo
# [1] = system: Alopecurus myosuroides (ALOMY); assay: Example A pre-emergence herbicidal activity, glasshouse pot test; details: 480 h, rate 250 g/ha, evaluated 20 days after spraying, read-out: Pre-emergence activity ALOMY (100=total damage to plant; 0=no damage to plant)
# Method: (§1) Seeds of a variety of test species were sown in standard soil in pots. After cultivation for one day (pre-emergence) or after 10 days cultivation (post-emergence) under controlled conditions in a glasshouse, the plants were sprayed with an aqueous spray solution derived from the formulation of the technical active ingredient in 0.6 ml acetone and 45 ml formulation solution containing 10.6% Emulsogen EL (Registry number 61791-12-6), 42.2% N-methylpyrrolidone, 42.2% dipropylene glycol monomethyl ether (Registry number 34590-94-8) and 0.2% X-77 (Registry number 11097-66-8). The test plants were then grown in a greenhouse under optimum conditions until, 15 days later for post-emergence and 20 days for pre-emergence, the test was evaluated (100=total damage to plant; 0=no damage to plant).
# (§2) Alopecurus myosuroides (ALOMY), Avena fatua (AVEFA), Lolium perenne (LOLPE), Setaria faberi (SETFA), Digitaria sanguinalis (DIGSA), Echinochloa crus-galli (ECHCG)
# Setaria faberi (SETFA) [2] = assay: as above; details: 480 h, rate 250 g/ha, evaluated 20 days after spraying, read-out: Pre-emergence activity SETFA (100=total damage to plant; 0=no damage to plant)
# Method: as §1, §2
# Avena fatua (AVEFA) [3] = assay: as above; details: 480 h, rate 250 g/ha, evaluated 20 days after spraying, read-out: Pre-emergence activity AVEFA (100=total damage to plant; 0=no damage to plant)
# Method: as §1, §2
# Lolium perenne (LOLPE) [4] = assay: as above; details: 480 h, rate 250 g/ha, evaluated 20 days after spraying, read-out: Pre-emergence activity LOLPE (100=total damage to plant; 0=no damage to plant)
# Method: as §1, §2
# [5] = system: Echinochloa crus-galli (ECHCG); assay: as above; details: 480 h, rate 250 g/ha, evaluated 20 days after spraying, read-out: Pre-emergence activity ECHCG (100=total damage to plant; 0=no damage to plant)
# Method: as §1, §2
# [6] = system: Digitaria sanguinalis (DIGSA); assay: as above; details: 480 h, rate 250 g/ha, evaluated 20 days after spraying, read-out: Pre-emergence activity DIGSA (100=total damage to plant; 0=no damage to plant)
# Method: as §1, §2
# [7] = system: Alopecurus myosuroides (ALOMY); assay: Example A post-emergence herbicidal activity, glasshouse pot test; details: 360 h, rate 125 g/ha, evaluated 15 days after spraying, read-out: Post-emergence activity ALOMY (100=total damage to plant; 0=no damage to plant)
# Method: as §1, §2
# Setaria faberi (SETFA) [8] = assay: as above; details: 360 h, rate 125 g/ha, evaluated 15 days after spraying, read-out: Post-emergence activity SETFA (100=total damage to plant; 0=no damage to plant)
# Method: as §1, §2
# Avena fatua (AVEFA) [9] = assay: as above; details: 360 h, rate 125 g/ha, evaluated 15 days after spraying, read-out: Post-emergence activity AVEFA (100=total damage to plant; 0=no damage to plant)
# Method: as §1, §2
# Lolium perenne (LOLPE) [10] = assay: as above; details: 360 h, rate 125 g/ha, evaluated 15 days after spraying, read-out: Post-emergence activity LOLPE (100=total damage to plant; 0=no damage to plant)
# Method: as §1, §2
# [11] = system: Echinochloa crus-galli (ECHCG); assay: as above; details: 360 h, rate 125 g/ha, evaluated 15 days after spraying, read-out: Post-emergence activity ECHCG (100=total damage to plant; 0=no damage to plant)
# Method: as §1, §2
# [12] = system: Digitaria sanguinalis (DIGSA); assay: as above; details: 360 h, rate 125 g/ha, evaluated 15 days after spraying, read-out: Post-emergence activity DIGSA (100=total damage to plant; 0=no damage to plant)
# Method: as §1, §2
# Solanum nigrum (SOLNI) [13] = assay: Example B pre-emergence herbicidal activity, glasshouse pot test; details: 312 h, evaluated after 13 days, read-out: Pre-emergence activity SOLNI (100=total damage to plant; 0=no damage to plant); for pest or weed control at 250 g/ha: rate 250 g/ha
# Method in brief: (§3)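 After sowing in standard soil, pots were cultivated 1 day (pre-emergence) or 8 days (post-emergence), then treated with an aqueous spray of the formulated active ingredient (acetone/water 50:50, 0.5% Tween 20). Phytotoxicity was assessed on a 0–100 scale at 13 days.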
# [14] = system: Alopecurus myosuroides (ALOMY); assay: as above; details: 312 h, evaluated after 13 days, read-out: Pre-emergence activity ALOMY (100=total damage to plant; 0=no damage to plant); for pest or weed control at 250 g/ha: rate 250 g/ha
# Method in brief: as §3
# Setaria faberi (SETFA) [15] = assay: as above; details: 312 h, evaluated after 13 days, read-out: Pre-emergence activity SETFA (100=total damage to plant; 0=no damage to plant); for pest or weed control at 250 g/ha: rate 250 g/ha
# Method in brief: as §3
# Avena fatua (AVEFA) [16] = assay: as above; details: 312 h, evaluated after 13 days, read-out: Pre-emergence activity AVEFA (100=total damage to plant; 0=no damage to plant); for pest or weed control at 250 g/ha: rate 250 g/ha
# Method in brief: as §3
# [17] = system: Amaranthus retroflexus (AMARE); assay: as above; details: 312 h, evaluated after 13 days, read-out: Pre-emergence activity AMARE (100=total damage to plant; 0=no damage to plant); for pest or weed control at 250 g/ha: rate 250 g/ha
# Method in brief: as §3
# [18] = system: Echinochloa crus-galli (ECHCG); assay: as above; details: 312 h, evaluated after 13 days, read-out: Pre-emergence activity ECHCG (100=total damage to plant; 0=no damage to plant); for pest or weed control at 250 g/ha: rate 250 g/ha
# Method in brief: as §3
# Solanum nigrum (SOLNI) [19] = assay: Example B post-emergence herbicidal activity, glasshouse pot test; details: 312 h, evaluated after 13 days, read-out: Post-emergence activity SOLNI (100=total damage to plant; 0=no damage to plant); for pest or weed control at 250 g/ha: rate 250 g/ha
# Method in brief: as §3
# [20] = system: Alopecurus myosuroides (ALOMY); assay: as above; details: 312 h, evaluated after 13 days, read-out: Post-emergence activity ALOMY (100=total damage to plant; 0=no damage to plant); for pest or weed control at 250 g/ha: rate 250 g/ha
# Method in brief: as §3
# Setaria faberi (SETFA) [21] = assay: as above; details: 312 h, evaluated after 13 days, read-out: Post-emergence activity SETFA (100=total damage to plant; 0=no damage to plant); for pest or weed control at 250 g/ha: rate 250 g/ha
# Method in brief: as §3
# Avena fatua (AVEFA) [22] = assay: as above; details: 312 h, evaluated after 13 days, read-out: Post-emergence activity AVEFA (100=total damage to plant; 0=no damage to plant); for pest or weed control at 250 g/ha: rate 250 g/ha
# Method in brief: as §3
# [23] = system: Amaranthus retroflexus (AMARE); assay: as above; details: 312 h, evaluated after 13 days, read-out: Post-emergence activity AMARE (100=total damage to plant; 0=no damage to plant); for pest or weed control at 250 g/ha: rate 250 g/ha
# Method in brief: as §3
# [24] = system: Echinochloa crus-galli (ECHCG); assay: as above; details: 312 h, evaluated after 13 days, read-out: Post-emergence activity ECHCG (100=total damage to plant; 0=no damage to plant); for pest or weed control at 250 g/ha: rate 250 g/ha
# Method in brief: as §3
Structure (SMILES),pest or weed control at 250 g/ha [1],pest or weed control at 250 g/ha (Setaria faberi (SETFA) [2]),pest or weed control at 250 g/ha (Avena fatua (AVEFA) [3]),pest or weed control at 250 g/ha (Lolium perenne (LOLPE) [4]),pest or weed control at 250 g/ha [5],pest or weed control at 250 g/ha [6],pest or weed control at 125 g/ha [7],pest or weed control at 125 g/ha (Setaria faberi (SETFA) [8]),pest or weed control at 125 g/ha (Avena fatua (AVEFA) [9]),pest or weed control at 125 g/ha (Lolium perenne (LOLPE) [10]),pest or weed control at 125 g/ha [11],pest or weed control at 125 g/ha [12],pest or weed control at 250 g/ha (Solanum nigrum (SOLNI) [13]),pest or weed control at 250 g/ha [14],pest or weed control at 250 g/ha (Setaria faberi (SETFA) [15]),pest or weed control at 250 g/ha (Avena fatua (AVEFA) [16]),pest or weed control at 250 g/ha [17],pest or weed control at 250 g/ha [18],pest or weed control at 250 g/ha (Solanum nigrum (SOLNI) [19]),pest or weed control at 250 g/ha [20],other results
Cc1ccc(-c2ccc(Cl)cc2)cc1C1=C(O)[C@@]2(C)CC[C@](C)(O2)C1=O [Compound A-40],30%,70%,10%,20%,70%,70%,70%,70%,60%,60%,100%,70%,–,–,–,–,–,–,–,–,–
Cc1ccc(-c2ccc(Cl)c(Cl)c2)cc1C1=C(O)C(C)(C)OC(C)(C)C1=O [Compound A-48],30%,60%,10%,0%,100%,60%,70%,40%,40%,0%,40%,40%,–,–,–,–,–,–,–,–,–
Cc1ccc(-c2ccc(Cl)cc2Cl)cc1C1=C(O)C(C)(C)OC(C)(C)C1=O [Compound A-49],0%,50%,20%,20%,100%,50%,50%,50%,70%,80%,80%,70%,–,–,–,–,–,–,–,–,–
Cc1ccc(-c2ccc(Cl)c(F)c2)cc1C1=C(O)C(C)(C)C(=O)C(C)(C)C1=O [Compound B-23],–,–,–,–,–,–,–,–,–,–,–,–,0%,0%,0%,0%,0%,10%,0%,30%,pest or weed control at 250 g/ha (Setaria faberi (SETFA) [21]): 70%; pest or weed control at 250 g/ha (Avena fatua (AVEFA) [22]): 0%; pest or weed control at 250 g/ha [23]: 0%; pest or weed control at 250 g/ha [24]: 60%
CCc1ccc(-c2ccc(Cl)cc2OC)cc1C1=C(O)C(C)(C)C(=O)C(C)(C)C1=O [Compound B-25],–,–,–,–,–,–,–,–,–,–,–,–,0%,0%,0%,0%,0%,0%,0%,20%,pest or weed control at 250 g/ha (Setaria faberi (SETFA) [21]): 20%; pest or weed control at 250 g/ha (Avena fatua (AVEFA) [22]): 0%; pest or weed control at 250 g/ha [23]: 0%; pest or weed control at 250 g/ha [24]: 70%
CCc1ccc(-c2ccc(Cl)cc2)cc1C1=C(OC(=O)OC(C)C)C(C)(C)OC(C)(C)C1=O [Compound D-17],–,–,–,–,–,–,–,–,–,–,–,–,–,–,–,–,–,–,–,–,pest or weed control at 1000 g/ha (Solanum nigrum (SOLNI) [13]; rate 1000 g/ha): 0%; pest or weed control at 1000 g/ha ([14]; rate 1000 g/ha): 20%; pest or weed control at 1000 g/ha (Setaria faberi (SETFA) [15]; rate 1000 g/ha): 90%; pest or weed control at 1000 g/ha (Avena fatua (AVEFA) [16]; rate 1000 g/ha): 0%; pest or weed control at 1000 g/ha ([17]; rate 1000 g/ha): 0%; pest or weed control at 1000 g/ha ([18]; rate 1000 g/ha): 80%; pest or weed control at 1000 g/ha (Solanum nigrum (SOLNI) [19]; rate 1000 g/ha): 0%; pest or weed control at 1000 g/ha ([20]; rate 1000 g/ha): 60%; pest or weed control at 1000 g/ha (Setaria faberi (SETFA) [21]; rate 1000 g/ha): 100%; pest or weed control at 1000 g/ha (Avena fatua (AVEFA) [22]; rate 1000 g/ha): 20%; pest or weed control at 1000 g/ha ([23]; rate 1000 g/ha): 10%; pest or weed control at 1000 g/ha ([24]; rate 1000 g/ha): 100%
